The source of these data is EPA's ToxValDB 9.5.

The subject of data set [1] is Mus musculus. As to conditions: subchronic; duration: 90 days; oral; diet; M/F; CD1.
Data set [2] deals with Rattus norvegicus. Conditions: short-term; duration: 28 days; oral; gavage; M/F; Fischer 344; Clinical Observation: Dark brown colored bedding + Body Weight Changes: Weight gain decrease + Food Consumption: decrease + Hematology: RBC ….
In data set [3] the test system is Canidae. Conditions: chronic, oral, M/F, Dog Other.
The subject of data set [4] is Oryctolagus sp. As to conditions: developmental; oral; F; maternal (reduced weight gain) and fetal toxicity.
Data set [5] has as its system Oryctolagus sp. Conditions: developmental; duration: 12 days; oral; gavage; Dam: Decreased weight gain + Fetus: Decreased weight + Fetus: Increased mortality + Fetus: Increased post-implantation losses.
The subject of data set [6] is Oryctolagus sp. As to conditions: for NOAEL: reproduction developmental, duration: 13 days, oral, New Zealand.
Data set [7] concerns Rattus norvegicus. Conditions: oral; for LD50: acute.
Data set [8] has as its system Rattus norvegicus. Conditions: oral, M; for NOAEL: chronic, diet, Wistar, immunological.
For a further data set, the system named is Coturnix japonica. Conditions: repeat dose other; oral.
For data set [9], the system named is Mus musculus. As to conditions: repeat dose other; oral.
The subject of data set [10] is Rattus norvegicus. As to conditions: uterotrophic, Active.
Data set [11] relates to Mus musculus. Conditions: uterotrophic, injection, Active.
The subject of data set [12] is Mus musculus. As to conditions: oral, M.
For data set [13], the system named is Rattus norvegicus. Conditions: chronic; duration: 27 weeks; oral; diet; M/F; liver lesions.
The subject of data set [14] is Rattus norvegicus. As to conditions: oral, diet.
The test system of the next data set is Pelecanus occidentalis. As to conditions: oral.
Data set [15] deals with Rattus norvegicus. Conditions: repeat dose other; oral.
Another data set concerns Gallus sp. As to conditions: repeat dose other; oral.
A further data set has as its system Homo sapiens. As to conditions: clinical; duration: 20 minutes; inhalation; M/F; neurological.
In data set [16] the test system is Oryctolagus sp. The experiment in a line: LD0; higher = less toxic. Conditions: acute; dermal; New Zealand.
Data set [17] concerns Mus musculus. As to conditions: chronic; duration: 2 years; inhalation; intermittent; Nasal mucosa: Hyperplasia + Nasal mucosa: Hypertrophy.
The test system of data set [18] is Rattus norvegicus. The experiment in a line: LC0; higher = less toxic. As to conditions: acute; inhalation.
For data set [19], the system named is Rattus norvegicus. Description: LD0; higher = less toxic. Conditions: acute, oral, gavage.
In data set [20] the test system is Mus musculus. As to conditions: acute; oral; gavage; CD1.
The subject of data set [21] is Canidae. Conditions: chronic; duration: 2 years; oral; diet; F; Beagle; neurological, hepatic.
For data set [22], the system named is Canidae. Conditions: chronic; duration: 2 years; oral; diet; Dog Other; Central nervous system: Convulsions + Liver: Lesions.
For another data set, the system named is Megascops sp. As to conditions: oral.
Where [23] appears, read: duration: 2 years, diet, reduced body weight gain, and increased liver and kidney weight.
Setting [24] is: short-term, duration: 28 days, gavage, Sprague-Dawley.
Setting [25] is: histological lesions in liver, occasional convulsions.

“And” between values parts separate entries of the source, which are not always exact repeats. Equal entries are not always repeated.

Take `c1ccc(Nc2ccccc2)cc1` [Diphenylamine]: the NOAEL with Mus musculus [1] is 2.1 mg/kg-day. Further, in the data set on Rattus norvegicus [2], the NOEL was 111 mg/kg-day. In addition, in the data set on Canidae [3] (setting [23]), the LEL is 25 mg/kg-day and the NOEL came out at 2.5 mg/kg-day.

The compound `COc1c(Cl)ccc(Cl)c1C(=O)O` [Dicamba] registered an LEL in the data set on Oryctolagus sp. [4] of 10 mg/kg-day. In the data set with Oryctolagus sp. [4], this compound displayed an NOEL of 3 mg/kg-day. The NOAEL is 3 mg/kg-day in the data set with Oryctolagus sp. [5]; no more than 30 mg/kg-day with Oryctolagus sp. [6] (F); no more than 300 mg/kg-day in the data set on Oryctolagus sp. [6] (generation: F1); no more than 400 mg/kg-day in the data set with Rattus norvegicus [7] (developmental, duration: 14 days, gavage, Crj:CD); no more than 160 mg/kg-day in the data set on Rattus norvegicus [7] (reproduction developmental, duration: 14 days, gavage, F, Crj:CD).

Regarding `CCC[CH2][Sn]([CH2]CCC)([CH2]CCC)[O][Sn]([CH2]CCC)([CH2]CCC)[CH2]CCC` [Bis(tributyltin)oxide], the NOAEL with Rattus norvegicus [8] (duration: 6 months) is 0.025 mg/kg-day; in the data set on Rattus norvegicus [8] (duration: 18 months), 0.025 mg/kg-day; in the data set on Coturnix japonica, 6.8 mg/kg-day; in the data set with Mus musculus [9], 23.4 mg/kg-day. The LOAEL was found to be 16.9 mg/kg-day with Coturnix japonica and 35 mg/kg-day in the data set on Mus musculus [9].

`Clc1ccc(C(c2ccc(Cl)cc2)C(Cl)(Cl)Cl)cc1` [DDT]: the LEL stood at 12.5 mg in the data set with Rattus norvegicus [10] (duration: 1 days, injection, intraperitoneal); 4 mg in the data set with Rattus norvegicus [10] (duration: 3 days, injection, intraperitoneal); 100 mg/kg-day in the data set on Rattus norvegicus [10] (duration: 3 days, oral); 100 mg/kg-day with Mus musculus [11] (duration: 3 days, intraperitoneal); 1000 mg/kg-day in the data set with Mus musculus [11] (duration: 3 days, subcutaneous); 10 mg/kg-day in the data set with Mus musculus [11] (duration: 5 days, subcutaneous). The LOAEL in the data set on Mus musculus [12] (developmental, duration: 14 days, gavage, NMRI, developmental) is 0.5 mg/kg-day; in the data set on Rattus norvegicus [13] it was 0.39 mg/kg-day; in the data set on Pelecanus occidentalis, 0.028 mg/kg-day; in the data set on Rattus norvegicus [15] it was 4 mg/kg-day. For the same compound, the NOEL came out at 0.05 mg/kg-day in the data set on Rattus norvegicus [13] and 0.05 mg/kg-day in the data set with Rattus norvegicus [14] (chronic, duration: 27 weeks, Liver: Lesions). For the same compound, the figures for the NOAEL with Pelecanus occidentalis and in the data set with Rattus norvegicus [15] were 0.0028 mg/kg-day and 0.8 mg/kg-day, respectively.

Regarding `[Cu+].[Cu+].[O-2]` [Cuprous oxide], in the data set with Gallus sp., the LOAEL was found to be 61.7 mg/kg-day and the NOAEL was determined as 47 mg/kg-day.

For the compound `Cc1ccccc1` [1-Methylbenzene], the LOAEL in the data set on Homo sapiens came out at 56.5 mg/m3; in the data set on Rattus norvegicus [8] (acute, duration: 1 days, gavage, Long-Evans, neurological), 250 mg/kg-day; in the data set on Mus musculus [9], 260 mg/kg-day. Further, the NOAEL with Mus musculus [12] (short-term, duration: 28 days, drinking water, CD1, immunological) was 22 mg/kg-day; in the data set on Mus musculus [9], 26 mg/kg-day.

The compound `NC1CCCCC1N` (stereo not drawn) [1,2-Cyclohexanediamine] displayed an LD0 with Oryctolagus sp. [16] of 7500 mg/kg. This compound registered an LD50 in the data set with Rattus norvegicus [7] (gavage, Sprague-Dawley) of 1100 mg. In the data set on Rattus norvegicus [7] (setting [24]), this compound gave an LOAEL of 250 mg/kg-day and an NOAEL of 100 mg/kg-day. In addition, in the data set with Rattus norvegicus [7] (subchronic, duration: 13 weeks, gavage, Crj:CD), the NOAEL was 125 mg/kg-day.

In turn, `ClC=CCCl` [1,3-Dichloropropene] displayed an NOEL with Rattus norvegicus [14] (subchronic, duration: 90 days, Organs: Increased weight) of 3 mg/kg-day. The NOAEL in the data set on Mus musculus [17] is 22.7 mg/m3.

In the data set on Rattus norvegicus [18], `S=C(SN1CCOCC1)N1CCOCC1` [4-((Morpholinothio)thioxomethyl)morpholine] registered an LC0 of 164 mg/L. Besides, the LD0 is 1000 mg/kg in the data set with Rattus norvegicus [19] and 2700 mg/kg in the data set on Rattus norvegicus [19] (Sprague-Dawley). Moreover, the LD50 in the data set with Oryctolagus sp. [6] (acute, dermal, semiocclusive) is greater than 10000 mg/kg; in the data set with Rattus norvegicus [7] (gavage), 5110 mg/kg; in the data set on Rattus norvegicus [7] (gavage, Sprague-Dawley), 5000 mg/kg and 5200 mg/kg; with Mus musculus [20], 7000 mg/kg and 9000 mg/kg and 11000 mg/kg. For the same compound, the NOAEL was 200 ppm with Rattus norvegicus [7] (reproduction developmental, duration: 12 weeks, diet, Sprague-Dawley, generation: F0); 600 ppm in the data set on Rattus norvegicus [7] (reproduction developmental, duration: 12 weeks, diet, Sprague-Dawley, generation: F1); 600 ppm in the data set on Rattus norvegicus [7] (reproduction developmental, diet, Sprague-Dawley, generation: F0).

In the case of `ClC1=C(Cl)[C@]2(Cl)[C@@H]3[C@H]4C[C@H]([C@@H]5O[C@H]45)[C@@H]3[C@@]1(Cl)C2(Cl)Cl` [Endrin], the NOAEL in the data set with Canidae [21] came out at 0.025 mg/kg-day; in the data set with Megascops sp., 0.01 mg/kg-day; with Mus musculus [9] it was 0.092 mg/kg-day. Also, the LOAEL turned out to be 0.05 mg/kg-day in the data set with Canidae [3] (setting [25]), 0.1 mg/kg-day in the data set on Megascops sp. and 0.92 mg/kg-day in the data set on Mus musculus [9]. Moreover, the NOEL with Canidae [3] (setting [25]) and with Canidae [22] was 0.025 mg/kg-day each time.

As usually defined, the NOAEL is the highest tested level that showed no adverse finding. Usually LOAEL stands for the lowest dose or exposure tested at which an adverse effect was seen.
